These results are taken from publication PMC7961853 (Journal of medicinal chemistry, 2020).

One data set concerns the target GluN1/GluN2D (Rattus norvegicus, UniProt Q62645). As to conditions: percent of control, 100 μM glutamate and 30 μM glycine.
Data set [1] concerns GluN2C- and GluN2D-containing receptors. As to the kind of experiment: TEVC recordings, values stated in text jointly for GluN2C/D. The format is cell-based, rat. As to conditions: for activity at GluN2C/D in words: TEVC evaluation; for p(doubling conc.) at GluN2C/D / pEC50 at GluN2C/D: value or range over GluN2C and GluN2D; for maximum potentiation at GluN2C/D: fitted max, range over GluN2C and GluN2D, saturating co-agonists.

Data set [2] deals with GluN1/GluN2C (Rattus norvegicus, UniProt Q00961). The note with it: percent of control, 100 μM glutamate and 30 μM glycine.
Chain of GluN1/GluN2C (Rattus norvegicus, UniProt Q00961) (Q00961 20-1237, other chains not shown): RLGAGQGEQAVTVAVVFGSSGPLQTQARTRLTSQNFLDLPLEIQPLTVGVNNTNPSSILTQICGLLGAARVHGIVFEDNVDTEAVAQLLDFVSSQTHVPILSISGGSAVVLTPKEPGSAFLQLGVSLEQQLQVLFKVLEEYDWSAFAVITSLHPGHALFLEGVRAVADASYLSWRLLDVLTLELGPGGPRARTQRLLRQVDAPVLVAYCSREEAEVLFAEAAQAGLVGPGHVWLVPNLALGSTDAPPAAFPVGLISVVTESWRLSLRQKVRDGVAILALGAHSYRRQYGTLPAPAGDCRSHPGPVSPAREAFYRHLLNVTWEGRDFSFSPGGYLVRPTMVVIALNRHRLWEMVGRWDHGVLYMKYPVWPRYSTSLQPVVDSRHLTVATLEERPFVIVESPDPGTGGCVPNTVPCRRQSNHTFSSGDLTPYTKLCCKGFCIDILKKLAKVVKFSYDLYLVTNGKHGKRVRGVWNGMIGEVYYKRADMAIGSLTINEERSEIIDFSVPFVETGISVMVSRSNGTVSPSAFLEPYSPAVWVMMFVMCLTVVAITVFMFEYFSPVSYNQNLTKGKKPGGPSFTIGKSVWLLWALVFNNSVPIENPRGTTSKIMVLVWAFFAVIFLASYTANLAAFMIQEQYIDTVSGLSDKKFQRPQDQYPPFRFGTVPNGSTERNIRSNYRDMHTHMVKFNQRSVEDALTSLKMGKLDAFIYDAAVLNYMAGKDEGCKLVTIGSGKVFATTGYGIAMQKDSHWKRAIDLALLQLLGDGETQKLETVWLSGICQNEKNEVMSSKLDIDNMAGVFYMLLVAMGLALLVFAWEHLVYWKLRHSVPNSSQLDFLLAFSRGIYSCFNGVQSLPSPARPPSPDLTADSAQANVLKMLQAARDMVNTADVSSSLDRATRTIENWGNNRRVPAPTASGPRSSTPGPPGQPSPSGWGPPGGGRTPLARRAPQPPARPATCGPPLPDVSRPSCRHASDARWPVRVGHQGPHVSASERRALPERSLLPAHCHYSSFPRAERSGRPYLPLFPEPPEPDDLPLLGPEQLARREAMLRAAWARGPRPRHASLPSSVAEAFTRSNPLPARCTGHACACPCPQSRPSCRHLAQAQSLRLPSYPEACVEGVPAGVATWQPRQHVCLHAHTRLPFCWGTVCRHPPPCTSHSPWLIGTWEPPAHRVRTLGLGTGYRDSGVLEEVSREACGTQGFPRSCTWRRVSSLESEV
Data set [3] is described as follows: plasma protein binding by equilibrium dialysis. It is filed as in vitro ADME, rat. The note with it: 1 μM of drug. (In equilibrium dialysis only unbound substance equilibrates across the membrane.)
For data set [4] the following is noted: 20 mg/kg i.p., cited from earlier work.
For data set [5], the system named is GluN2A- or GluN2B-containing receptors. The experiment in a line: TEVC recordings, values stated jointly for GluN2A/B. The format is cell-based, rat. The note with it: 10 or 30 μM compound.
In data set [6] the target is GluN1/GluN2C (Rattus norvegicus, UniProt P35439+Q00961). As to the kind of experiment: cell-based.
Chain of GluN1/GluN2C (Rattus norvegicus, UniProt P35439+Q00961) (Q00961 20-1237, other chains not shown): as above
Data set [7] can be described thus: pharmacokinetics in mice, i.p. dosing, plasma and brain by LC/MS-MS. As to conditions: male, C57Bl/6, mouse, ip, 10 mg/kg.
A short description of data set [8]: stability as a powder or DMSO stock. The format is physicochemical. As to conditions: room temperature under regular atmosphere; longest time tested.
The subject of another data set is α4β2-nACh. It is filed as cell-based. The note with it: 10 μM compound, saturating agonist.
The target of data set [9] is GluN2A-containing receptors. As to conditions: cited from earlier work.

A value given as a limit tells only on which side of the number the result lay.

Chain of GluN1/GluN2D (Q62645 28-1323, other chains not shown): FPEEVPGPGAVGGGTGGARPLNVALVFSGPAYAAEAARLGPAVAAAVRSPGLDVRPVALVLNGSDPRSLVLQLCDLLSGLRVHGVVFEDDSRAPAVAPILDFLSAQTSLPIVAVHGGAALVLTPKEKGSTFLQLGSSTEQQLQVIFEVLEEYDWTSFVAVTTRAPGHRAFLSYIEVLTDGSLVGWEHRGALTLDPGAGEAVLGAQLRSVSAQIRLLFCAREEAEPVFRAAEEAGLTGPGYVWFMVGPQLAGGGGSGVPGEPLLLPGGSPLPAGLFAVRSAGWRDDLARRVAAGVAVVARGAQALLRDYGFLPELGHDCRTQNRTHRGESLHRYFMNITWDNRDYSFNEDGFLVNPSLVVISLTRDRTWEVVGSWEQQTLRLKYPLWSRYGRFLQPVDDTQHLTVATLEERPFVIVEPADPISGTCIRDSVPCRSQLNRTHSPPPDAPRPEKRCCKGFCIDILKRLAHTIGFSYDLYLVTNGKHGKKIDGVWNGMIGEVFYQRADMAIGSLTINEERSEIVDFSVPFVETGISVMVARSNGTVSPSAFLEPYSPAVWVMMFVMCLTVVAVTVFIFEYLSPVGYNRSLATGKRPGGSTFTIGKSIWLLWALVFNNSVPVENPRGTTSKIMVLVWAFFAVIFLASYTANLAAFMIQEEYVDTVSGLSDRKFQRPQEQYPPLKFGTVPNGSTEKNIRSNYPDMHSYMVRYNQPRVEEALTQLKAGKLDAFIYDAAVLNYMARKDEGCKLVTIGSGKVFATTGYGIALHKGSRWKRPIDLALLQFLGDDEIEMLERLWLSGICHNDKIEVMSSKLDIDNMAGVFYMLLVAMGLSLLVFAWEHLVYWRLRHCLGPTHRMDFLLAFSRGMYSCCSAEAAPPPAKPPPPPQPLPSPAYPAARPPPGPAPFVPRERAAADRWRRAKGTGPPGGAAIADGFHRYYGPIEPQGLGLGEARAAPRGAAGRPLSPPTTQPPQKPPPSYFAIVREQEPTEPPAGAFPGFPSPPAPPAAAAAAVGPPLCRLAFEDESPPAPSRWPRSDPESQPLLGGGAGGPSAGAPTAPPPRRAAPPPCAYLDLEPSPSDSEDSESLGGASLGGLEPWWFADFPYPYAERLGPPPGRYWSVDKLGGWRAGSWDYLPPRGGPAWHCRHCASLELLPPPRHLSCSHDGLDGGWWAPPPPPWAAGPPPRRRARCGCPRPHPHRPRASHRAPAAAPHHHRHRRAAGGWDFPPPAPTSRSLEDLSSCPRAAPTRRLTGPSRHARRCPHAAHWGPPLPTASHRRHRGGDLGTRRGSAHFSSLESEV

Take “1-((4-Ethoxyphenoxy)methyl)-2-(3-(trifluoromethyl)benzyl)-1,2-dihydropyrrolo[1,2-a]pyrazine-3(4H)-thione [compound 32]”: the “max (%) GluN2D, pEC50 ND: percent potentiation at 30 μM drug” value on GluN1/GluN2D is reported as “ND (110) %”. Also, the “activity at GluN2C/D in words” value in data set [1] was “complete loss of activity”. In addition, the “max (%) GluN2C, pEC50 ND: percent potentiation at 30 μM drug” value at GluN1/GluN2C [2] is on record as “ND (120) %”.
As to `COc1ccc(OCC2c3cc(OC)c(OC)cc3CCN2C(=O)c2cccc(Cl)c2)s1` (stereo not shown) [18a, (3-Chlorophenyl)(6,7-dimethoxy-1-(((5-methoxythiophen-2-yl)-oxy)methyl)-3,4-dihydroisoquinolin-2(1H)-yl)methanone], the “activity at GluN2C/D in words” value in [1] is given as “not tolerated”.
As to `COc1ccc(OCC2c3cc(OC)c(OC)cc3CCN2C(=O)c2cccc(Cl)c2)cc1` (stereo not shown) [CIQ, (3-chlorophenyl)(6,7-dimethoxy-1-((4-methoxyphenoxy)-methyl)-3,4-dihydroisoquinolin-2(1H)-yl)methanone], in [3], the “bound to rat plasma protein” value is on record as above 99.9%. In addition, the “Cmax (ng/mL), plasma” value in data set [4] (1:4:5 dimethylacetamide:PEG400:(5% dextrose in water)) is given as 2090 ± 20 ng/mL. In addition, the “t1/2 (h), plasma” value in [4] was 1.35 ± 0.12 h.
Turning to `COc1ccc(OCC2c3ccc(OC)cc3CC(=O)N2CCCC(F)(F)F)cc1` (stereo not shown) [12f, 6-Methoxy-1-((4-methoxyphenoxy)methyl)-2-(4,4,4-trifluorobutyl)-1,2-dihydroisoquinolin-3(4H)-one], the “p(doubling conc.) at GluN2C/D” value in data set [1] was 5.0–5.1.
Usually pEC50 stands for the EC50 on a negative log10 scale, so that one unit is a factor of ten. Read a high pEC50 as a small EC50. With `COc1ccc(OCC2c3cnn(C)c3CCN2C(=O)c2cccc(Cl)c2)cc1` (stereo not shown) [25g, (3-Chlorophenyl)(4-((4-methoxyphenoxy)methyl)-1-methyl-1,4,6,7-tetrahydro-5H-pyrazolo[4,3-c]pyridin-5-yl)methanone], the “pEC50 at GluN2C/D” value in data set [1] is below 4.5.
For `COc1ccc(OCC2c3occc3CCN2C(=O)c2cccc(Cl)c2)cc1` (stereo not shown) [25f, (3-Chlorophenyl)(7-((4-methoxyphenoxy)methyl)-4,7-dihydrofuro[2,3-c]pyridin-6(5H)-yl)methanone], in data set [1], the “p(doubling conc.) at GluN2C/D” value is 5.4–5.5.
`COc1cc2c(cc1OC)C(CO)N(C(=O)c1cccc(C(F)(F)F)c1)CC2` (stereo not shown) [17b, (1-(Hydroxymethyl)-6,7-dimethoxy-3,4-dihydroisoquinolin-2(1H)-yl)(3-(trifluoromethyl)phenyl)methanone]: in data set [1], the “activity at GluN2C/D in words” value was “not tolerated”.
In the case of `COc1ccc(OCC2c3sccc3CCN2C(=O)c2cccc(Cl)c2)cc1` (stereo not shown) [25a, (3-Chlorophenyl)(7-((4-methoxyphenoxy)methyl)-4,7-dihydrothieno[2,3-c]pyridin-6(5H)-yl)methanone], the “activity at GluN2A/B in words” value in [5] is “no activity”. Besides, in data set [1], the “maximum potentiation at GluN2C/D” value was 280–350% and the “p(doubling conc.) at GluN2C/D” value is 5.3–5.6.
As usually defined, the EC50 is the concentration at which the effect is half-maximal. On to `COc1ccc(OCC2c3cc(OC)sc3CCN2C(=O)c2cccc(Cl)c2)cc1` (stereo not shown) [25d, (3-Chlorophenyl)(2-methoxy-4-((4-methoxyphenoxy)methyl)-6,7-dihydrothieno[3,2-c]pyridin-5(4H)-yl)methanone], for which, at GluN1/GluN2C [6], the EC50 was 5010 nM. Moreover, at GluN1/GluN2C [6] (read-out: max (%) GluN2C), the Emax was determined as 220%.
For the compound `COc1ccc(OCC2c3ccc(OC)cc3CC(=O)N2CC(F)(F)F)cc1` (stereo not shown) [12g, 6-Methoxy-1-((4-methoxyphenoxy)methyl)-2-(2,2,2-trifluoroethyl)-1,2-dihydroisoquinolin-3(4H)-one], in [1], the “pEC50 at GluN2C/D” value is below 4.5.
By Tmax is commonly meant the time at which the peak concentration occurs. By Cmax is commonly meant the maximum level reached in the sampled fluid or tissue. For the compound `COc1ccc(OCC2c3cccn3CC(=O)N2Cc2cccc(F)c2)cc1` (stereo not shown) [EU-1180–453, 2-(3-Fluorobenzyl)-1-((4-methoxyphenoxy)methyl)-1,2-dihydropyrrolo[1,2-a]pyrazin-3(4H)-one], the “bound to rat plasma protein” value in data set [3] is on record as 98.7%. In data set [7] (brain and plasma), the Tmax is 15 min. The compound also registered a Cmax in [7] (plasma) of 695 ± 111 ng/mL. Moreover, the “stable as a powder or a DMSO stock” value in data set [8] was “at least 30 days”.
With `COc1ccc(OCC2c3ccsc3CCN2C(=O)c2cccc(Cl)c2)cc1` (stereo not shown) [25h, (3-Chlorophenyl)(4-((4-methoxyphenoxy)methyl)-6,7-dihydrothieno[3,2-c]pyridin-5(4H)-yl)methanone], in data set [1], the “maximum potentiation at GluN2C/D” value is recorded as 330–340%.
In the case of `COc1ccc(OCC2c3cccn3CC(=O)N2Cc2cccc(C(F)(F)F)c2)cc1` (stereo not shown) [31a, 1-((4-Methoxyphenoxy)methyl)-2-(3-(trifluoromethyl)benzyl)-1,2-dihydropyrrolo[1,2-a]pyrazin-3(4H)-one], in data set [1], the “p(doubling conc.) at GluN2C/D” value is reported as 5.9–6.1. Besides, the “inhibition of α4β2-nACh current response” value in the data set on α4β2-nACh is above 50%.
With `COc1ccc(OCC2c3cccn3CCN2C(=O)c2cccc(Cl)c2)cc1` (stereo not shown) [25i, (3-Chlorophenyl)(1-((4-methoxyphenoxy)methyl)-3,4-dihydropyrrolo[1,2-a]pyrazin-2(1H)-yl)methanone], the “p(doubling conc.) at GluN2C/D” value in [1] is listed as 5.8–5.9.
Take `N#C[C@@H]1C[C@H]1c1c(Cl)ccc2nc(Cn3nc(C(F)(F)F)cc3Cl)cc(=O)n12` [GNE-5729]: in [9], the EC50 is 37 nM.
With `COc1ccc(OCC2c3cc(OC)c(OC)cc3CC(=O)N2Cc2cccc(Cl)c2)cc1` (stereo not shown) [12m, 2-(3-Chlorobenzyl)-6,7-dimethoxy-1-((4-methoxyphenoxy)-methyl)-1,4-dihydroisoquinolin-3(2H)-one], in [5], the “activity at GluN2A/B in words” value is recorded as “no activity”.
For the compound `COc1cc2c(cc1OC)C(COC1CCOCC1)N(C(=O)c1cccc(C(F)(F)F)c1)CC2` (stereo not shown) [18d, (6,7-Dimethoxy-1-(((tetrahydro-2H-pyran-4-yl)oxy)methyl)-3,4-dihydroisoquinolin-2(1H)-yl)(3-(trifluoromethyl)phenyl)methanone], in data set [1], the “activity at GluN2C/D in words” value is listed as “not tolerated”.
